The record followed here is patent US20200405697A1, “Antitumor Agent” (Taiho Pharmaceutical Co., Ltd, priority 2017, published 2020).

The experiment deals with T1, human RNR (histidine tagged human M1 and human M2 proteins) (Homo sapiens, UniProt P23921).
T1 construct: made in house; host or cells: Escherichia coli
T1 sequence (P23921 1-792): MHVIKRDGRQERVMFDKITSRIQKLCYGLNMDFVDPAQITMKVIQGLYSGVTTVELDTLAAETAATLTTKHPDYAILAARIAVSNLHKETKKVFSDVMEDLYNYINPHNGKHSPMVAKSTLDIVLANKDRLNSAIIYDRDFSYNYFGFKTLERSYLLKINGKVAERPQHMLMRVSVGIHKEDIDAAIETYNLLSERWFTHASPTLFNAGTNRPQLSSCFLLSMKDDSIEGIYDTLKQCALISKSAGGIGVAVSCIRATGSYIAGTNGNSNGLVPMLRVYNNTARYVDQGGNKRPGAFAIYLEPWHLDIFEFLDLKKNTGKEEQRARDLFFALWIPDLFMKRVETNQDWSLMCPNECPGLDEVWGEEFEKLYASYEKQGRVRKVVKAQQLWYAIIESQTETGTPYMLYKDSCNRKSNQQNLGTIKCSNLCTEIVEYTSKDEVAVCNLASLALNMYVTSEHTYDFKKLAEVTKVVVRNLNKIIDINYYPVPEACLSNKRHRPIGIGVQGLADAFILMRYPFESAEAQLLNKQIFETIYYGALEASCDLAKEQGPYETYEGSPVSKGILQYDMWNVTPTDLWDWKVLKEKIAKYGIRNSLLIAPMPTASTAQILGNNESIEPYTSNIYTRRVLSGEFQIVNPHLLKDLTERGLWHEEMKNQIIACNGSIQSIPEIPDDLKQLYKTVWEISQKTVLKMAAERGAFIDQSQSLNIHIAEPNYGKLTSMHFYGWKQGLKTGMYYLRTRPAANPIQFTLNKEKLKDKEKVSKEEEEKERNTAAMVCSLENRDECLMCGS
Kind of experiment: Human RNR inhibition effect (dCDP formation from CDP). The format is biochemical. The following applies: 10 μM CDP, 37° C. for 30 minutes, read-out: RNR inhibitory activity IC50. Summed up: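 His-tagged human M1 (isoform 1) and N-terminal 59-aa-truncated M2 (isoform 2), E. coli-expressed, Ni-purified, preincubated 20 min with compound (1% DMSO). Reaction with 10 μM CDP, 2 mM ATP, 0.24 mM NADPH, 6 mM DTT, 4 mM Mg acetate, 100 mM KCl, 50 mM HEPES pH 7.2, 30 min at 37° C. dCDP formed quantified by reverse-phase HPLC after heat stop.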
For `COc1cc(Cl)ccc1S(=O)(=O)N[C@H](c1n[nH]c(=O)o1)[C@H](C)c1c(F)ccc(-c2cncc(C(=O)N3CCOCC3)c2)c1C` [Example 323, 4-chloro-N-((1S,2R)-2-(6-fluoro-2-methyl-3-(5-(morpholine-4-carbonyl)pyridin-3-yl)phenyl)-1-(5-oxo-4,5-dihydro-1,3,4-oxadiazol-2-yl)propyl)-2-methoxybenzenesulfonamide], the IC50 is 420 nM.
As for `COc1cc(Cl)ccc1S(=O)(=O)N[C@H](c1n[nH]c(=O)o1)[C@H](C)c1c(F)ccc(-c2ccn(C)n2)c1C` [Example 305, 4-chloro-N-((1S,2R)-2-(6-fluoro-2-methyl-3-(1-methyl-1H-pyrazol-3-yl)phenyl)-1-(5-oxo-4,5-dihydro-1,3,4-oxadiazol-2-yl)propyl)-2-methoxybenzenesulfonamide], the figure is 240 nM; as for `Cc1ccc(F)c([C@@H](C)[C@H](NS(=O)(=O)c2ccc(Cl)c3c2OCCC3O)c2n[nH]c(=O)o2)c1C` (single isomer, unassigned) [Example 235B], 70 nM.
As for `Cc1ccc(F)c([C@@H](C)[C@H](NS(=O)(=O)c2ccc(C3CC3)cc2C(N)=O)c2n[nH]c(=O)o2)c1C` [Example 16, 5-Cyclopropyl-2-(N-((1S,2R)-2-(6-Fluoro-2,3-dimethylphenyl)-1-(5-oxo-4,5-dihydro-1,3,4-oxadiazol-2-yl)propyl)sulfamoyl)benzamide], the figure is 130 nM; as for `Cc1ccc(F)c([C@@H](C)[C@H](NS(=O)(=O)c2ccc(C(F)(F)F)cc2C(N)=O)c2n[nH]c(=O)o2)c1C` [Example 41, 2-(N-((1S,2R)-2-(6-fluoro-2,3-dimethylphenyl)-1-(5-oxo-4,5-dihydro-1,3,4-oxadiazol-2-yl)propyl)sulfamoyl)-5-(trifluoromethyl)benzamide], 100 nM; as for `C[C@H](c1c(F)ccc2ccccc12)[C@H](NS(=O)(=O)c1ccc(Br)cc1C(N)=O)c1n[nH]c(=O)o1` [Example 15, 5-bromo-2-(N-((1S,2R)-2-(2-fluoronaphthalen-1-yl)-1-(5-oxo-4,5-dihydro-1,3,4-oxadiazol-2-yl)propyl)sulfamoyl)benzamide], 100 nM.
Under `COc1cc(Cl)ccc1S(=O)(=O)N[C@H](c1n[nH]c(=O)o1)[C@H](C)c1c(F)ccc(-c2cc(F)cc(F)c2)c1C` [Example 299, 4-chloro-2-methoxy-N-((1S,2R)-1-(5-oxo-4,5-dihydro-1,3,4-oxadiazol-2-yl)-2-(3′,4,5′-trifluoro-2-methyl-[1,1′-biphenyl]-3-yl)propyl)benzenesulfonamide] stands 940 nM.
Turning to `Cc1ccc(F)c([C@@H](C)[C@H](NS(=O)(=O)c2ccc(F)c3c2OCCC3=O)c2n[nH]c(=O)o2)c1C` [Example 159, 5-fluoro-N-((1S,2R)-2-(6-fluoro-2,3-dimethylphenyl)-1-(5-oxo-4,5-dihydro-1,3,4-oxadiazol-2-yl)propyl)-4-oxochroman-8-sulfonamide], the IC50 worked out at 160 nM.
As for `Cc1ccc(F)c([C@@H](C)[C@H](NS(=O)(=O)c2ccc(C#N)cc2)c2n[nH]c(=O)o2)c1C` [Example 341, 4-cyano-N-((1S,2R)-(6-fluoro-2,3-dimethylphenyl)-1-(5-oxo-4,5-dihydro-1,3,4-oxadiazol-2-yl)propyl)benzenesulfonamide], the IC50 was 410 nM.
As for `Cc1cccc([C@@H](C)[C@H](NS(=O)(=O)c2ccc(Cl)c3c2OCC=C3)c2n[nH]c(=O)o2)c1C` [Example 295, 5-chloro-N-((1S,2R)-2-(2,3-dimethylphenyl)-1-(5-oxo-4,5-dihydro-1,3,4-oxadiazol-2-yl)propyl)-2H-chromene-8-sulfonamide], the figure is 790 nM; as for `Cc1cccc2cccc([C@@H](C)[C@H](NS(=O)(=O)c3ccc(Cl)c4c3OCCC4(F)F)c3n[nH]c(=O)o3)c12` [Example 81, 5-chloro-4,4-difluoro-N-((1S,2R)-2-(8-methylnaphthalen-1-yl)-1-(5-oxo-4,5-dihydro-1,3,4-oxadiazol-2-yl)propyl)chroman-8-sulfonamide], 280 nM; as for `Cc1ccc(F)c([C@@H](C)[C@H](NS(=O)(=O)c2ccc(Cl)c3c2OCC(=O)N3CCO)c2n[nH]c(=O)o2)c1C` [Example 273, 5-chloro-N-((1S,2R)-2-(6-fluoro-2,3-dimethylphenyl)-1-(5-oxo-4,5-dihydro-1,3,4-oxadiazol-2-yl)propyl)-4-(2-hydroxyethyl)-3-oxo-3,4-dihydro-2H-benzo[b][1,4]oxazine-8-sulfonamide], 130 nM.
With `CCc1ccc(S(=O)(=O)N[C@H](c2n[nH]c(=O)o2)[C@H](C)c2c(F)ccc(C)c2C)c(C(N)=O)c1` [Example 18, 5-Ethyl-2-(N-((1S,2R)-2-(6-fluoro-2,3-dimethylphenyl)-1-(5-oxo-4,5-dihydro-1,3,4-oxadiazol-2-yl)propyl)sulfamoyl)benzamide], the IC50 turned out to be 130 nM.
As for `COc1cc(Cl)ccc1S(=O)(=O)N[C@H](c1n[nH]c(=O)o1)[C@H](C)c1c(F)ccc(-c2cn[nH]c2)c1C` [Example 303, 4-chloro-N-((1S,2R)-2-(6-fluoro-2-methyl-3-(1H-pyrazol-4-yl)phenyl)-1-(5-oxo-4,5-dihydro-1,3,4-oxadiazol-2-yl)propyl)-2-methoxybenzensulfonamide], the figure is 160 nM; as for `Cc1ccc(F)c([C@@H](C)[C@H](NS(=O)(=O)c2ccccc2C#N)c2n[nH]c(=O)o2)c1C` [Example 98, 2-cyano-N-((1S,2R)-2-(6-fluoro-2,3-dimethylphenyl)-1-(5-oxo-4,5-dihydro-1,3,4-oxadiazol-2-yl)propyl)benzenesulfonamide], 640 nM.
As for `Cc1ccc(F)c([C@@H](C)[C@H](NS(=O)(=O)c2cc(-c3nnco3)ccc2C(N)=O)c2n[nH]c(=O)o2)c1C` [Example 331, 2-(N-((1S,2R)-2-(6-fluoro-2,3-dimethylphenyl)-1-(5-oxo-4,5-dihydro-1,3,4-oxadiazol-2-yl)propyl)sulfamoyl)-4-(1,3,4-oxadiazol-2-yl)benzamide], the figure is 90 nM; as for `Cc1ccc(F)c([C@@H](C)[C@H](NS(=O)(=O)c2ccc(Cl)c(C(=O)N3CCOCC3)n2)c2n[nH]c(=O)o2)c1C` [Example 113, 5-chloro-N-((1S,2R)-2-(6-fluoro-2,3-dimethylphenyl)-1-(5-oxo-4,5-dihydro-1,3,4-oxadiazol-2-yl)propyl)-6-(moipholine4-carbonyl)pyridine-2-sulfonamide], 60 nM.
As for `Cc1ccc(F)c([C@@H](C)[C@H](NS(=O)(=O)c2cc(F)c(Br)cc2F)c2n[nH]c(=O)o2)c1C` [Example 339, 4-bromo-2,5-difluoro-N-((1S,2R)-(6-fluoro-2,3-dimethylphenyl)-1-(5-oxo-4,5-dihydro-1,3,4-oxadiazol-2-yl)propyl)benzenesulfonamide], the figure is 510 nM; as for `Cc1c(Br)ccc(F)c1[C@@H](C)[C@H](NS(=O)(=O)c1ccc(Cl)c2c1OCCC2(C)N)c1n[nH]c(=O)o1` (stereo partly drawn) [Example 329, 4-amino-N-((1S,2R)-2-(3-bromo-6-fluoro-2-methylphenyl)-1-(5-oxo-4,5-dihydro-1,3,4-oxadiazol-2-yl)propyl)-5-chloro-4-methyl-chroman-8-sulfonamide], 60 nM.
Consider `Cc1ccc(F)c([C@@H](C)[C@H](NS(=O)(=O)c2ccc3c(c2)C(=O)CCC3)c2n[nH]c(=O)o2)c1C` [Example 174, N-((1S,2R)-2-(6-fluoro-2,3-dimethylphenyl)-1-(5-oxo-4,5-dihydro-1,3,4-oxadiazol-2-yl)propyl)-8-oxo-5,6,7,8-tetrahydronaphthalene-2-sulfonamide], for which the IC50 worked out at 350 nM.
Under `[2H]C([2H])([2H])C1(O)CCOc2c(S(=O)(=O)N[C@H](c3n[nH]c(=O)o3)[C@H](C)c3c(F)ccc(C)c3C)ccc(Cl)c21` (single isomer, unassigned) [Example 200B] stands 80 nM.
As for `COC(=O)c1cc(Cl)ccc1S(=O)(=O)N[C@H](c1n[nH]c(=O)o1)[C@H](C)c1c(F)ccc(C)c1C` [Example 103, methyl 5-chloro-2-(N-((1S,2R)-2-(6-fluoro-2,3-dimethylphenyl)-1-(5-oxo-4,5-dihydro-1,3,4-oxadiazol-2-yl)propyl)sulfamoyl)benzoate], the figure is 410 nM; as for `Cc1ccc(F)c([C@@H](C)[C@H](NS(=O)(=O)c2cc(F)c(Cl)cc2C(=O)O)c2n[nH]c(=O)o2)c1C` [Example 217, 5-chloro-4-fluoro-2-(N-((1S,2R)-2-(6-fluoro-2,3-dimethylphenyl)-1-(5-oxo-4,5-dihydro-1,3,4-oxadiazol-2-yl)propyl)sulfamoyl)benzoic acid], 960 nM.
